Results from patent US9562044B2, “2-acylaminothiazole derivative or salt thereof” (ASTELLAS PHARMA INC., priority 2013, dated 2017).
Structures can show the parent of a compound that is named as a salt.

Tests used:
[1] = tested on: isolated rat bladder; experiment: Transmural electrical field stimulation-induced contraction of isolated rat bladder; conditions: AUC of contractile response, value before treatment = 100%, SD female rat bladder strip, read-out: Enhancement rate of isolated bladder contraction (% of pre)
Description: Effects on Transmural Electrical Field Stimulation-Induced Contraction of Isolated Rat Bladder
As an effect on the nerve stimulation-dependent bladder contraction in vitro, the effect of the Example compound of the present invention in the transmural electrical field stimulation-induced contraction of isolated rat bladder was measured by the following method. That is, from the bladder isolated from a Spraque-Dawley (SD) female rat (Japan SLC, Inc.), a longitudinal bladder strip having a width of about 2 mm and a length of about 10 mm was prepared. The prepared bladder strip was suspended in an organ bath filled with 10 mL of a Krebs-Henseleit solution. The Krebs-Henseleit solution was bubbled with 95% O2 and 5% CO2, and kept at 37° C. After stabilization at an initial tension of 1 g, contraction was induced twice with 60 mM KCl. The strip was washed with the Krebs-Henseleit solution and stabilized, and then contraction was induced with transmural electrical field stimulation at 20 V (stimulation frequency of 8 Hz, pulse width of 0.3 msec, and stimulation time of 10 seconds) by an electrical stimulation device (Nihon Kohden Corporation). At an interval of 2 minutes, transmural electrical field stimulation was repeated and the voltage was adjusted to make the contractile amplitude about 50% of the contractile response by 20 V. After stabilization of the contraction by the transmural electrical field stimulation, 10 μL of the test substance (final concentrations of 3 μM, 10 μM, and 30 μM), which had been dissolved in 100% dimethylsulfoxide in advance was added. The test substance was cumulatively administered at the next concentration after the contractile response at a lower concentration had been stabilized. The responses were put into a personal computer through PowerLab (registered trademark) (AD Instruments), and analyzed with LabChart (registered trademark) (AD Instruments). The area under the response of each contractile response (area under curve, AUC) was calculated and the value before the treatment with the test substance was set to 100%. Based on this, the enhancement rate of the isolated bladder contraction (% of pre) after the treatment with the test substance was calculated.
The enhancement rates of the isolated bladder contraction due to several 10 μM Example compounds which are the compounds of the formula (I) are shown in Table 2.

[2] = target: T1, human c-Mpl receptor (Homo sapiens, UniProt P40238); experiment: Human c-Mpl-introduced Ba/F3 cell proliferative activity; format: cell-based; conditions: concentration showing 30% proliferation; 100% = positive control at 1 μM
T1 construct: expressed in transfected cells
T1 sequence (P40238 26-635): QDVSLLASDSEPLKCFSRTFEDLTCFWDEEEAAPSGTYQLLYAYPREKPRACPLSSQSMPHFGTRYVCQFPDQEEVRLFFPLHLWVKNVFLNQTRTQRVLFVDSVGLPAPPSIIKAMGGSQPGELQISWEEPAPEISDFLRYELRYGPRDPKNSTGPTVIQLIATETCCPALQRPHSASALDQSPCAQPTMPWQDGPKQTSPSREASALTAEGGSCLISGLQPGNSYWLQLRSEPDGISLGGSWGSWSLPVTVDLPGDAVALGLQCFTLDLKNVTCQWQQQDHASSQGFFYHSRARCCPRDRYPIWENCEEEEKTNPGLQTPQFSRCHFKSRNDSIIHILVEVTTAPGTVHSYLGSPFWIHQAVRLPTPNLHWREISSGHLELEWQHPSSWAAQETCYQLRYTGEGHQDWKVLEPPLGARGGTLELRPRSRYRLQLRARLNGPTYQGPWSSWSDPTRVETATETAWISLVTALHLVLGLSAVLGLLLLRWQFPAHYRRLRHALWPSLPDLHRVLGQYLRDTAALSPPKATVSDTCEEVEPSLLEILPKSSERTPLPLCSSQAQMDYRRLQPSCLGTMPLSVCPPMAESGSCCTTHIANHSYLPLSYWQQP
Description: Evaluation of Human c-Mpl-Introduced Ba/F3 Cell Proliferative Activity
The human c-Mpl-introduced Ba/F3 cell proliferative activity was measured by the following method.
As a positive control, 1-(5-{[4-(4-chloro-2-thienyl)-5-{[(2R)-2-methylpyrrolidin-1-yl]methyl}-1,3-thiazol-2-yl]carbamoyl}-3-fluoropyridin-2-yl)piperidine-4-carboxylic acid hydrochloride, which is disclosed as Example 315 in Patent Document 1 and represented by the formula A1, was used. It is known that the compound has a good human c-Mpl-introduced Ba/F3 cell proliferative activity as disclosed in Table 1 of Patent Document 1.
a) Construction of Human c-Mpl Receptor Expression Vector
A human c-mpl receptor gene (GenBank Accession No. M90102.1) was introduced into an expression vector pEF-BOS (Nucleic Acids Res. 18, 5322, 1990).
b) Construction of Cell Stably Expressing Human c-Mpl Receptor
A human c-Mpl receptor expression vector was introduced into a Ba/F3 cell (RIKEN BRC: RCB0805). For the introduction, an electroporation method was used. pEF-BOS-c-mpl (10 μg), pSV2bsr (1 μg, Kaken Pharmaceutical Co., Ltd.) and 1×10^7 Ba/F3 cells were put into a cuvette having a gap width of 0.4 cm, and electroporated under the conditions of 1.5 kV (25 μF) by a Gene Pulser (registered trademark) (BioRad). The cells were cultured in an RPMI-1640 culture medium containing 0.5% WEHI conditioned media (BD Biosciences) and 10% fetal bovine serum for 3 days, and then cultured in an RPMI-1640 culture medium, to which 10 μg/mL blasticidin had been further added, for 30 days to acquire a drug-resistant clone.
c) Measurement of Cell Proliferative Activity
The cells obtained in b) above was cultured in an RPMI-1640 culture medium containing 0.5% WEHI conditioned media, 10% fetal bovine serum, and used. On the day before the experiment, test substances (final concentration of 100 nM to 10 μM) which had been dissolved in a culture medium for assay (RPMI-1640 culture medium containing 10% fetal bovine serum) were added to a 384-well plate (Lot No. 781185, Greiner Bio-One). The cells in the culture medium that had been replaced with a culture medium for assay were dispensed into a 384-well plate, to which the test substances had been added in advance, to 1×10^4 cells/well, and cultured at 37° C. and 5% CO2 overnight. On the experiment day, a solution of a Cell Counting Kit (Dojindo Laboratories) was added to each well of the 384-well plate and cultured at 37° C. and 5% CO2 for about 5 hours. Thereafter, the absorbance (absorption wavelength of 450 nm) of each well was measured using Safire^2™ (TECAN) and used as the index of the number of cells. Further, as a negative control, a well in which the test substance had been not added was prepared.
The absorbance of the well without the test substance was set to 0%, and the absorbance in the case where the positive control was added at a final concentration of 1 μM was set to 100%. From the absorbance in the case where the test substance had been added, a cell proliferation rate (%) was calculated. From the obtained results, the test substance concentration showing 30% proliferation was calculated as an EC30 value by a logistic regression method.

Structure (SMILES) | activity at 10 µM [1] [%] | Test Example 2 EC30 [2] [µM]
CCCOc1ccc(-c2nc(NC(=O)c3cnc(N4CCC(C(=O)O)CC4)cn3)sc2CN2CCC[C@H]2CC)cc1C(F)(F)F [Example 1, 1-{5-[(5-{[(2R)-2-ethylpyrrolidin-1-yl]methyl}-4-[4-propoxy-3-(trifluoromethyl)phenyl]-1,3-thiazol-2-yl)carbamoyl]pyrazin-2-yl}piperidine-4-carboxylic acid dihydrochloride] | 132 | >10
COc1cc(-c2nc(NC(=O)c3cnc(N4CCC(C(=O)O)CC4)cn3)sc2CN2CCCC[C@H]2C)cc(C(F)(F)F)c1 [Example 2, 1-{5-[(4-[3-methoxy-5-(trifluoromethyl)phenyl]-5-{[(2R)-2-methylpiperidin-1-yl]methyl}-1,3-thiazol-2-yl)carbamoyl]pyrazin-2-yl}piperidine-4-carboxylic acid dihydrochloride] |  | >10
Cc1cc(OC(F)(F)F)cc(-c2nc(NC(=O)c3cnc(N4CCC(F)(C(=O)O)CC4)cn3)sc2CN2CCC[C@H]2C)c1 [Example 3, 4-fluoro-1-{5-[(5-{[(2R)-2-methylpyrrolidin-1-yl]methyl}-4-[3-methyl-5-(trifluoromethoxy)phenyl]-1,3-thiazol-2-yl)carbamoyl]pyrazin-2-yl}piperidine-4-carboxylic acid dihydrochloride] |  | 4.8
C[C@@H]1CCCN1Cc1sc(NC(=O)c2cnc(N3CCC(C(=O)O)CC3)cn2)nc1-c1ccc(N(C)C)c(C(F)(F)F)c1 [Example 11] |  | >10
CCCC1CCCN1Cc1sc(NC(=O)c2cnc(N3CCC(C(=O)O)CC3)cn2)nc1-c1ccc(OC(C)C)c(C(F)(F)F)c1 (stereo not drawn) [Example 19] | 124 | >10
CC(C)Oc1ccc(-c2nc(NC(=O)c3cnc(N4CCC(C(=O)O)CC4)cn3)sc2CN2CCCC(C)(C)C2)cc1C(F)(F)F [Example 20] |  | >10
CC[C@@H]1CCCN1Cc1sc(NC(=O)c2cnc(N3CCC(C(=O)O)CC3)cn2)nc1-c1ccc(OCCCOC)c(C(F)(F)F)c1 [Example 21] |  | >10
CCCOc1ccc(-c2nc(NC(=O)c3cnc(N4CCC(C(=O)O)CC4)cn3)sc2CN2CCCC(C)(C)C2)cc1C(F)(F)F [Example 27] |  | >10
COCCN(Cc1sc(NC(=O)c2cnc(N3CCC(C(=O)O)CC3)cn2)nc1-c1cc(C(F)(F)F)cc(C(F)(F)F)c1)CC(C)C [Example 38] |  | >10
CCOC[C@@H]1CCCN1Cc1sc(NC(=O)c2cnc(N3CCC(C(=O)O)CC3)cn2)nc1-c1cc(F)c(OC)c(Cl)c1 [Example 69] | 152 | >10
CCOC[C@@H]1CCCN1Cc1sc(NC(=O)c2cnc(N3CCC(C(=O)O)CC3)cn2)nc1-c1cc(F)c(OC)c(C(F)(F)F)c1 [Example 84] | 140 | >10
COc1c(Cl)cc(-c2nc(NC(=O)c3cnc(N4CCC(C(=O)O)CC4)cn3)sc2CN2CCC[C@H]2C)cc1Cl [Example 92] | 132 | >10
CC[C@@H]1CCCN1Cc1sc(NC(=O)c2cnc(N3CCC(F)(C(=O)O)CC3)cn2)nc1-c1ccc(OC)c(C(F)(F)F)c1 [Example 125] |  | >10
C[C@@H]1CCCN1Cc1sc(NC(=O)c2cnc(N3CCC(F)(C(=O)O)CC3)cn2)nc1-c1cc(F)cc(C(F)(F)F)c1 [Example 128] |  | 8.4
C[C@@H]1CCCN1Cc1sc(NC(=O)c2cnc(N3CCC(O)(C(=O)O)CC3)cn2)nc1-c1cc(Cl)cs1 [Example 129] |  | 0.77
C[C@@H]1CCCN1Cc1sc(NC(=O)c2cnc(N3CCC(F)(C(=O)O)CC3)cn2)nc1-c1ccc(F)c(C(F)(F)F)c1 [Example 133] |  | 1.1
C[C@@H]1CCCCN1Cc1sc(NC(=O)c2cnc(N3CCC(C(=O)O)CC3)cn2)nc1-c1cc(Cl)cs1 [Example 142] |  | 0.38
CCCN(CCOC)Cc1sc(NC(=O)c2cnc(N3CCC(C(=O)O)CC3)cn2)nc1-c1cc(Cl)cs1 [Example 146] |  | 0.82
C[C@@H]1CCCN1Cc1sc(NC(=O)c2cnc(N3CCC(C(=O)O)CC3)cn2)nc1-c1cc(F)cc(C(F)(F)F)c1 [Example 150] |  | >10
COCCN(Cc1sc(NC(=O)c2cnc(N3CCC(C(=O)O)CC3)cn2)nc1-c1cc(Cl)cs1)CC(C)C [Example 152] |  | 0.58
CCCC1CCCN1Cc1sc(NC(=O)c2cnc(N3CCC(C(=O)O)CC3)cn2)nc1-c1ccc(OC)c(C(F)(F)F)c1 (stereo not drawn) [Example 158] | 125 | >10
COc1ccc(-c2nc(NC(=O)c3cnc(N4CCC(C(=O)O)CC4)cn3)sc2CN2CCC[C@H]2C(F)(F)F)cc1C(F)(F)F [Example 179] | 120 | >10
CC[C@@H]1CCCN1Cc1sc(NC(=O)c2cnc(N3CCC(C(=O)O)CC3)cn2)nc1-c1cc(Cl)cs1 [Example 196] | 125 | 
CCOc1ccc(-c2nc(NC(=O)c3cnc(N4CCC(C(=O)O)CC4)cn3)sc2CN2CCC[C@H]2C)cc1C(F)(F)F [Example 200] |  | >10
CCOc1ccc(-c2nc(NC(=O)c3cnc(N4CCC(C(=O)O)CC4)cn3)sc2CN2CCC[C@H]2CC)cc1C(F)(F)F [Example 203] |  | >10
O=C(Nc1nc(-c2ccc(OCCCF)c(C(F)(F)F)c2)c(CN2CCC[C@H]2C(F)(F)F)s1)c1cnc(N2CCC(C(=O)O)CC2)cn1 [Example 204] |  | >10
